72 compounds from US8765779B2, “Tricyclic derivatives and their pharmaceutical use and compositions” (Cephalon, Inc., priority 2009, dated 2014) can be followed below.

Bounds are passed on as bounds.

In the test the target is T1, human 5-HT6 receptor (Homo sapiens, UniProt P50406).
T1 construct: host or cells: CHO-K1 cells, stably transfected; membranes prepared in house
Put plainly: Human 5-HT6 Receptor Binding Assay ([3H]LSD displacement, scintillation beads). Conditions: membranes of CHO-K1 cells with recombinant human 5-HT6, 4 nM [3H]LSD; Table 1, class symbols; read-out: h5-HT6 (Ki).

T1 sequence (P50406 whole entry): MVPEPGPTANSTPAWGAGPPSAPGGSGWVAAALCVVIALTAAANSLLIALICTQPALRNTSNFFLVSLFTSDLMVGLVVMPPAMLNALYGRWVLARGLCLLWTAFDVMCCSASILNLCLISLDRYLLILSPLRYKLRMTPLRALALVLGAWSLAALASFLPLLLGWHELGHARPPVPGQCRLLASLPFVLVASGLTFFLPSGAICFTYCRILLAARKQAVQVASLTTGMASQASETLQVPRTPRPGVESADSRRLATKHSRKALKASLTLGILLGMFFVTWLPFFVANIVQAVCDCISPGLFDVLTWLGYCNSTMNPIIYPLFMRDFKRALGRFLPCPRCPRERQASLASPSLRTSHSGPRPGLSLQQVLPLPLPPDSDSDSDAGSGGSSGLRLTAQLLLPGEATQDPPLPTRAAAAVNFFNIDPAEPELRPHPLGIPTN

The Ki is a measure of affinity in units of concentration, obtained from inhibition or displacement. As for `CC1NCCc2c1oc1ccc(S(=O)(=O)c3cccc(F)c3)cc21` (stereo not drawn) [Example 283], the Ki is under 0.5 µM.

With `O=S(=O)(Oc1ccc2c(c1)OC1CNCCC21)c1ccc(OC(F)(F)F)cc1` (stereo not drawn) [Example 682], the Ki was under 0.5 µM.

Regarding `O=S(=O)(Oc1ccc2c(c1)OC1CN(C3CCCC3)CCC21)c1ccc(Cl)cc1` (stereo not drawn) [Example 801], the Ki is over 1 µM.

Regarding `COc1ccc(S(=O)(=O)c2ccc3c(c2)OC2CNCCC32)cc1OC` (stereo not drawn) [Example 115], the Ki was over 1 µM.

Take `O=S(=O)(Oc1ccc2c(c1)OC1CNCCC21)c1ccc(F)cc1` (stereo not drawn) [Example 644]: the Ki is under 0.5 µM.

In the case of `CC12CCNCC1Oc1ccc(OS(=O)(=O)c3ccccc3)cc12` (stereo not drawn) [Example 759], the inhibitory constant (Ki) is over 1 µM.

As for `O=S(=O)(c1cccc(C(F)(F)F)c1)c1ccc2c3c(oc2c1)C1(CCOC1)NCC3` (stereo not drawn) [Example 304], the Ki is under 0.5 µM.

In the case of `O=S(=O)(c1ccc2c(c1)OCCO2)c1ccc2c(c1)C1CCNCC1O2` (stereo not drawn) [Example 180], the Ki is over 1 µM.

As for `CC(C)C1NCCc2c1oc1cc(S(=O)(=O)c3cccc(Cl)c3)ccc21` (stereo not drawn) [Example 505], the Ki is under 0.5 µM.

As for `CCOc1cccc(S(=O)(=O)c2ccc3c(c2)OC2CNCCC32C)c1` (racemic) [Example 10, 7-[(3-ethoxyphenyl)sulfonyl]-4a-methyl-1,2,3,4,4a,9a-hexahydro[1]benzofuro[2,3-c]pyridine], the Ki is under 0.5 µM.

Turning to `COc1ccc(OC)c(S(=O)(=O)Oc2ccc3c(c2)C2CCNCC2O3)c1` (stereo not drawn) [Example 731], the Ki was under 0.5 µM.

For the compound `CC(C)c1ccc(S(=O)(=O)c2ccc3c(c2)C2CCNCC2O3)cc1` (stereo not drawn) [Example 179], the Ki was under 0.5 µM.

Regarding `O=S(=O)(c1ccc2c(c1)OC1CNCCC21)c1ccccc1F` (stereo not drawn) [Example 146], the Ki is under 0.5 µM.

Regarding `O=S(=O)(Nc1cccc2ccccc12)c1ccc2c(c1)C1CCNCC1O2` (stereo not drawn) [Example 837], the Ki was over 1 µM.

On to `Cc1cc(S(=O)(=O)c2ccc3c4c(oc3c2)CNCC4)ccc1F` [Example 218], for which the Ki is under 0.5 µM.

As for `O=S(=O)(NCc1ccc(Cl)cc1)c1ccc2c(c1)C1CCNCC1O2` (stereo not drawn) [Example 854], the Ki is over 1 µM.

`O=S(=O)(c1ccc2c3c(oc2c1)CNCC3)c1c(F)c(F)cc(F)c1F` [Example 225]: the Ki is under 0.5 µM.

On to `O=S(=O)(c1ccc2c3c(oc2c1)[C@]1(CCOC1)NCC3)c1cc(F)ccc1F` (single isomer, unassigned) [Example 111], for which the Ki is under 0.5 µM.

Turning to `CC(=O)NCC1(C)NCCc2c1oc1cc(S(=O)(=O)c3cccc(F)c3)ccc21` (stereo not drawn) [Example 632, N-({7-[(3-fluorophenyl)sulfonyl]-1-methyl-1,2,3,4-tetrahydro[1]benzofuro[2,3-c]pyridin-1-yl}methyl)acetamide], the Ki was under 0.5 µM.

For the compound `O=[N+]([O-])c1ccc(S(=O)(=O)c2ccc3c(c2)OC2CNCCC32)cc1` (stereo not drawn) [Example 124], the Ki is over 1 µM.

Regarding `O=S(=O)(Oc1ccc2c(c1)OC1CNCCC21)c1ccc(Oc2ccccc2)nc1` (stereo not drawn) [Example 685], the Ki is over 1 µM.

`CC12CCN(Cc3ccccc3)CC1Oc1ccc(OS(=O)(=O)Cc3ccccc3)cc12` (stereo not drawn) [Example 808]: the Ki was over 1 µM.

As for `O=S(=O)(Oc1ccc2c(c1)C1CCNCC1O2)c1ccc(F)c(Cl)c1` (stereo not drawn) [Example 723], the Ki is 0.5 to 1 µM.

As for `COc1ccccc1NS(=O)(=O)c1ccc2c(c1)C1CCNCC1O2` (stereo not drawn) [Example 841], the Ki is over 1 µM.

As to `COc1cc(OC2CCC2)cc(S(=O)(=O)c2ccc3c(c2)OC2CNCCC32)c1` (stereo not drawn) [Example 583], the Ki is under 0.5 µM.

Turning to `CCOc1cc(F)cc(S(=O)(=O)c2ccc3c(c2)OC2CNCCC32C)c1` (stereo not drawn) [Example 426], the Ki was under 0.5 µM.

Turning to `O=S(=O)(c1ccc2c(c1)OC1CNCCC21)c1cccc2c1OCCO2` (stereo not drawn) [Example 457], the inhibition constant (Ki) was under 0.5 µM.

`CN(C)C(=O)CC1(C)NCCc2c1oc1cc(S(=O)(=O)c3cccc(F)c3)ccc21` (racemic) [Example 40, 2-{7-[(3-fluorophenyl)sulfonyl]-1-methyl-1,2,3,4-tetrahydro[1]benzofuro[2,3-c]pyridin-1-yl}-N,N-dimethylacetamide]: the Ki was under 0.5 µM.

In the case of `O=S(=O)(c1cccc(F)c1)c1ccc2c3c(oc2c1)C1CCCCN1CC3` (stereo not drawn) [Example 617], the Ki is under 0.5 µM.

As for `CC12CCNCC1Oc1ccc(OS(=O)(=O)c3cc4ccccc4o3)cc12` (stereo not drawn) [Example 765], the Ki lay within 0.5 to 1 µM.

For `O=S(=O)(c1ccc2oc3c(c2c1)CCNC3)c1cc(F)ccc1F` [Example 273], the Ki is under 0.5 µM.

Consider `O=S(=O)(c1cccc(F)c1)c1ccc2oc3c(c2c1)CCNC3CCC(F)(F)F` (stereo not drawn) [Example 519], for which the Ki lay in the range of 0.5 to 1 µM.

In the case of `Nc1cccc(S(=O)(=O)c2ccc3c4c(oc3c2)CNCC4)c1` [Example 342], the Ki is under 0.5 µM.

In the case of `CCOc1cc(F)cc(S(=O)(=O)c2ccc3c(c2)OC2CNCCC32)c1` (stereo not drawn) [Example 413], the Ki was under 0.5 µM.

`COc1cccc(S(=O)(=O)c2ccc3c(c2)C2CCNCC2O3)c1` (stereo not drawn) [Example 178]: the Ki is under 0.5 µM.

As for `Cc1ccc(S(=O)(=O)Oc2ccc3c(c2)C2CCNCC2O3)cc1Cl` (stereo not drawn) [Example 719], the Ki is under 0.5 µM.

In the case of `O=S(=O)(Oc1ccc2c(c1)OC1CNCCC21)c1ccc(F)c(Cl)c1` (stereo not drawn) [Example 663], the Ki was under 0.5 µM.

`[O-][S+](c1cccc(C(F)(F)F)c1)c1ccc2c3c(oc2c1)C1(CCOCC1)NCC3` (stereo not drawn) [Example 297]: the Ki was under 0.5 µM.

Consider `O=S(=O)(c1ccccc1)c1ccc2c(c1)OC1CN(C3CCCCC3)CCC21` (stereo not drawn) [Example 610], for which the Ki is 0.5 to 1 µM.

As for `CC12CCNCC1Oc1ccc(OS(=O)(=O)Cc3cccc(Cl)c3)cc12` (stereo not drawn) [Example 791], the Ki was under 0.5 µM.

With `CC(C)Oc1ncccc1[S+]([O-])c1ccc2oc3c(c2c1)CCNC3` (stereo not drawn) [Example 446], the Ki is under 0.5 µM.

Regarding `CC(=O)N1CCC2c3cc(NS(=O)(=O)c4c(Cl)nc5sccn45)ccc3OC2C1` (stereo not drawn) [Example 816], the Ki was in the range of 0.5 to 1 µM.

On to `CC1(C)NCCc2c1oc1cc(S(=O)(=O)c3cccc4c3OCCO4)ccc21` [Example 466], for which the Ki is under 0.5 µM.

As to `COCC1NCCc2c1oc1cc(S(=O)(=O)c3cccc(F)c3)ccc21` (stereo not drawn) [Example 498], the Ki is under 0.5 µM.

Consider `O=S(=O)(Oc1ccc2c(c1)OC1CNCCC21)c1cc2ccccc2s1` (stereo not drawn) [Example 664], for which the Ki was under 0.5 µM.

In the case of `O=S(=O)(c1cccc(OCc2cccnc2)c1)c1ccc2c(c1)OC1CNCCC21` (stereo not drawn) [Example 559], the Ki is under 0.5 µM.

Turning to `O=S(=O)(c1ccc(Cl)c(Cl)c1)c1cccc2c1OC1CNCCC21` (stereo not drawn) [Example 186], the Ki is under 0.5 µM.

`O=S(=O)(c1ccc2c3c(oc2c1)CNCC3)c1cc(Cl)ccc1Cl` [Example 215, 7-[(2,5-dichlorophenyl)sulfonyl]-1,2,3,4-tetrahydro[1]benzofuro[2,3-c]pyridine]: the Ki is under 0.5 µM.

For the compound `O=S(=O)(Oc1ccc2c(c1)OC1CNCCC21)c1cccc2cnccc12` (stereo not drawn) [Example 684], the Ki was in the range of 0.5 to 1 µM.

Regarding `O=S(=O)(Oc1ccc2c(c1)OC1CNCCC21)c1ccc(Cl)c(Cl)c1` (stereo not drawn) [Example 676], the Ki is under 0.5 µM.

As for `CC12CCNCC1Oc1cc(S(=O)(=O)c3ccc(F)cc3)ccc12` (stereo not drawn) [Example 356], the Ki fell in the range of 0.5 to 1 µM.

In the case of `COc1cc(OC(C)C)cc(S(=O)(=O)c2ccc3c(c2)OC2CNCCC32)c1` (stereo not drawn) [Example 77], the Ki is under 0.5 µM.

For the compound `CC12CCNCC1Oc1ccc(OS(=O)(=O)c3cc4ccccc4o3)cc12` (stereo not drawn) [Example 764], the Ki lay in the range of 0.5 to 1 µM.

Consider `CC(C)c1ccc(S(=O)(=O)Oc2ccc3c(c2)C2CCNCC2O3)cc1` (stereo not drawn) [Example 716], for which the Ki was under 0.5 µM.

For `O=S(=O)(Nc1ccc2c(c1)C1CCNCC1O2)c1ccccc1` (stereo not drawn) [Example 817, N-(1,2,3,4,4a,9a-Hexahydro[1]benzofuro[2,3-c]pyridin-6-yl)benzenesulfonamide], the Ki was over 1 µM.

Turning to `O=S(=O)(c1cccc(Cl)c1)c1ccc2c3c([nH]c2c1)C1(CCCOC1)NCC3` (single isomer, unassigned) [Example 316], the Ki is under 0.5 µM.

Consider `O=S(=O)(c1ccccc1)c1ccc2oc3c(c2c1)CCNC3` [Example 348], for which the Ki is under 0.5 µM.

As for `O=S(=O)(c1ccc2c(c1)OC1CNCCC21)c1cccc(Cl)c1F` (stereo not drawn) [Example 409], the Ki is under 0.5 µM.

In the case of `O=S(=O)(Oc1ccc2c(c1)C1CCNCC1O2)c1ccccc1C(F)(F)F` (stereo not drawn) [Example 736], the Ki was over 1 µM.

Take `O=S(=O)(c1ccc2ccccc2c1)c1ccc2oc3c(c2c1)CCNC3` [Example 251]: the Ki is under 0.5 µM.

For the compound `Cc1cccc(S(=O)(=O)c2ccc3c(c2)OC2CNCCC32)n1` (stereo not drawn) [Example 328], the Ki was under 0.5 µM.

As for `O=S(=O)(Cc1ccccc1)Nc1ccc2c(c1)C1CCNCC1O2` (stereo not drawn) [Example 831], the Ki is over 1 µM.

As to `O=S(=O)(c1ccccc1)c1ccc2c(c1)OC1CNCCC21` (stereo not drawn) [Example 326, 7-(phenylsulfonyl)-1,2,3,4,4a,9a-hexahydro[1]benzofuro[2,3-c]pyridine], the Ki was under 0.5 µM.

As for `O=S(=O)(Oc1ccc2c(c1)C1CCNCC1O2)c1cc2ccccc2o1` (stereo not drawn) [Example 713], the Ki is under 0.5 µM.

Regarding `O=S(=O)(c1ccc(Cl)cc1)c1cccc2c1OC1CNCCC21` (stereo not drawn) [Example 188], the Ki was under 0.5 µM.

Turning to `COc1cc(S(=O)(=O)c2ccc3c4c(oc3c2)C2(CCOC2)NCC4(C)C)c[n+]([O-])c1` (stereo not drawn) [Example 453], the Ki is over 1 µM.

As to `O=S(=O)(c1ccc2c(c1)C1CCNCC1O2)N1CCc2ccccc21` (stereo not drawn) [Example 838], the Ki lay in the range of 0.5 to 1 µM.

For `COCC1NCCc2c1oc1ccc(S(=O)(=O)c3cccc(F)c3)cc21` (stereo not drawn) [Example 515], the Ki was over 1 µM.

In the case of `COc1ccc(S(=O)(=O)Oc2ccc3c(c2)C2CCNCC2O3)cc1` (stereo not drawn) [Example 707], the inhibition constant (Ki) was 0.5 to 1 µM.

Turning to `O=S(=O)(c1cc(F)cc(F)c1)c1ccc2oc3c(c2c1)CCNC3` [Example 256], the Ki was under 0.5 µM.

In the case of `CC(C)c1ccc(S(=O)(=O)Oc2ccc3c(c2)OC2CNCCC32)cc1` (stereo not drawn) [Example 794], the Ki is under 0.5 µM.

As to `O=[N+]([O-])c1ccc(S(=O)(=O)Oc2ccc3c(c2)C2CCNCC2O3)cc1` (stereo not drawn) [Example 749], the inhibitory constant (Ki) was over 1 µM.
